Experimental data reported in ChEMBL document CHEMBL5055626 (J Med Chem, 2021).
The source made the active and inactive calls. No cut-off for these calls is given here. Where a SMILES comes first, the peptide text is derived from it. Bridges are numbered along the chain shown (N, C = ends).

Legend:
[1] = target: Neuronal acetylcholine receptor; alpha3/beta4 (Rattus norvegicus) (UniProt P04757+P12392); test: Antagonist activity at rat alpha3beta4 nAChR expressed in xenopus oocytes assessed as inhibition of Ach- induced response at 10 uM at -70 mV holding potential preincubated for 5 mins followed by Ach stimulation by voltage-clamp based electrophysiological method; assay type: cell-based; details: Oocyte
[2] = target: T1, Nicotinic acetylcholine receptor alpha6/alpha3/beta4 (Homo sapiens, UniProt P30926+P32297+Q15825); test: Antagonist activity at rat alpha6/alpha3beta4 nAChR expressed in xenopus oocytes assessed as inhibition of Ach- induced response at -70 mV holding potential preincubated for 5 mins followed by Ach stimulation by voltage-clamp based electrophysiological method; assay type: cell-based, Oocyte
T1 sequence (P30926 whole entry): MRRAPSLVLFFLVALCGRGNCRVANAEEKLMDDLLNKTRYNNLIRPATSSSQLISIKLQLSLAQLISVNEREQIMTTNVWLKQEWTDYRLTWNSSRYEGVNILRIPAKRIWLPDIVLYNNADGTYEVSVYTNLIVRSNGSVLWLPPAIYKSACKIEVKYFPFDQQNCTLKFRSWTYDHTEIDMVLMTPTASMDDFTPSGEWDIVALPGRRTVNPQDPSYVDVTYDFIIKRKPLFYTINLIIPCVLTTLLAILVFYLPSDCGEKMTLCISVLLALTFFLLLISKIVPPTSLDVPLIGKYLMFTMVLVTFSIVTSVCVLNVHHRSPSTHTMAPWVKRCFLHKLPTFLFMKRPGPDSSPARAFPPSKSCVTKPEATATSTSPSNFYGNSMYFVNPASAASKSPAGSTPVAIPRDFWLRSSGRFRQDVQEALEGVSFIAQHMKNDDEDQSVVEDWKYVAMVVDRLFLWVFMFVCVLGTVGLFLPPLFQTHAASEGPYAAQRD
T1 sequence (P32297 whole entry): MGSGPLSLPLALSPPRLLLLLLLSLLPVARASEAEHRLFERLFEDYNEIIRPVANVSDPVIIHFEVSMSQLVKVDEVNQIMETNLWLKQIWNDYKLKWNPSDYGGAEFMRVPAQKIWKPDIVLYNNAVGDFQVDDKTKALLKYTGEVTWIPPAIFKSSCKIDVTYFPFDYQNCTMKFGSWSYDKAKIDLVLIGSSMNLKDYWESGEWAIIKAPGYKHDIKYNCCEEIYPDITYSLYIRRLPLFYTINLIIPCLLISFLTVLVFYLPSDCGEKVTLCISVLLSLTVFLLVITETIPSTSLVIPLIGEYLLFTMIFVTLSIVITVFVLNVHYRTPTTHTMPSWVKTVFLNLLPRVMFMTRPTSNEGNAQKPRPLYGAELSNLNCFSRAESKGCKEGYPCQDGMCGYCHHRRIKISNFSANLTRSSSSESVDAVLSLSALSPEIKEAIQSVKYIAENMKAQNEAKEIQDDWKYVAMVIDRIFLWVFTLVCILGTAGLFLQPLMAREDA
T1 sequence (Q15825 whole entry): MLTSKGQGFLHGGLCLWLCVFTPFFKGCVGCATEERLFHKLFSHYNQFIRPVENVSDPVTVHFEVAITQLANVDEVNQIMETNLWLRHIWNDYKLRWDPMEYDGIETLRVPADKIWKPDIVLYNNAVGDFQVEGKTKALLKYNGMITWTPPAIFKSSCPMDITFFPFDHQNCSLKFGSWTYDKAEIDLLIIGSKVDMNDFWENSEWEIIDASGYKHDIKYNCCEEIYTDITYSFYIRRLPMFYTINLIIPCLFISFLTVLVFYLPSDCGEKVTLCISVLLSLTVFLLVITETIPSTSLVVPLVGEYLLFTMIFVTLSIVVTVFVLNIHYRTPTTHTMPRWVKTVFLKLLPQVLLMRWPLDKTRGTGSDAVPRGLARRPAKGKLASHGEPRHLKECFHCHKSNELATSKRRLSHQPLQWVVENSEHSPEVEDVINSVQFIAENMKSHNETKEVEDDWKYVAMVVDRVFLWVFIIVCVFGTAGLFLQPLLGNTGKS

[3] = target: Neuronal acetylcholine receptor; alpha4/beta2 (Rattus norvegicus, UniProt P09483+P12390); test: Antagonist activity at rat alpha4beta2 nAChR expressed in xenopus oocytes assessed as inhibition of Ach- induced response at -70 mV holding potential preincubated for 5 mins followed by Ach stimulation by voltage-clamp based electrophysiological method; assay type: cell-based, Oocyte
[4] = target: Nicotinic acetylcholine receptor alpha9/alpha10 (Rattus norvegicus, UniProt P43144+Q9JLB5); test: Antagonist activity at rat alpha9alpha10 nAChR expressed in xenopus oocytes assessed as inhibition of Ach- induced response at -70 mV holding potential preincubated for 5 mins followed by Ach stimulation by voltage-clamp based electrophysiological method; assay type: cell-based, Oocyte
[5] = target: Neuronal acetylcholine receptor; alpha3/beta2 (Rattus norvegicus) (UniProt P04757+P12390); test: Antagonist activity at rat alpha3beta2 nAChR expressed in xenopus oocytes assessed as inhibition of Ach- induced response at 10^-5 M at -70 mV holding potential preincubated for 5 mins followed by Ach stimulation by voltage-clamp based electrophysiological method relative to control; assay type: cell-based; set-up: scale not given: the % may be the effect or the level left; details: Oocyte, filed as antagonist, dose 1.0 10^-5M
[6] = target: Neuronal acetylcholine receptor; alpha4/beta2 (Rattus norvegicus) (UniProt P09483+P12390); test: Antagonist activity at rat alpha4beta2 nAChR expressed in xenopus oocytes assessed as inhibition of Ach- induced response at 10 uM at -70 mV holding potential preincubated for 5 mins followed by Ach stimulation by voltage-clamp based electrophysiological method; assay type: cell-based; details: Oocyte
[7] = target: Neuronal acetylcholine receptor; alpha3/beta4 (Rattus norvegicus, UniProt P04757+P12392); test: Antagonist activity at rat alpha3beta4 nAChR expressed in xenopus oocytes assessed as inhibition of Ach- induced response at -70 mV holding potential preincubated for 5 mins followed by Ach stimulation by voltage-clamp based electrophysiological method; assay type: cell-based, Oocyte
Neuronal acetylcholine receptor; alpha3/beta4, sequence (P04757 whole entry): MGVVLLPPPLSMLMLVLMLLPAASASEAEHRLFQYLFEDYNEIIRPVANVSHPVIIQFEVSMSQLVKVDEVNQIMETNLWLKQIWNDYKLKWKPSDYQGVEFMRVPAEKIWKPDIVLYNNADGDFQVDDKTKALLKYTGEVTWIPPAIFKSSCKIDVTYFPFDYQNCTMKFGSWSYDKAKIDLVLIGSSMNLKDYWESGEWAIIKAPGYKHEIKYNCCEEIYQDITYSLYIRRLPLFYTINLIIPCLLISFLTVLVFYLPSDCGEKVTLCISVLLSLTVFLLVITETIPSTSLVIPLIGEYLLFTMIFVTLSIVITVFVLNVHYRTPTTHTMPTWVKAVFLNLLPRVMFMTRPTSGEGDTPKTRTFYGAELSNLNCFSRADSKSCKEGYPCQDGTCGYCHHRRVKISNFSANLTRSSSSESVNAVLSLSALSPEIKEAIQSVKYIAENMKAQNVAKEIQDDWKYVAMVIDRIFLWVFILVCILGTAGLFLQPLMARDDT
Neuronal acetylcholine receptor; alpha3/beta4, sequence (P12392 whole entry): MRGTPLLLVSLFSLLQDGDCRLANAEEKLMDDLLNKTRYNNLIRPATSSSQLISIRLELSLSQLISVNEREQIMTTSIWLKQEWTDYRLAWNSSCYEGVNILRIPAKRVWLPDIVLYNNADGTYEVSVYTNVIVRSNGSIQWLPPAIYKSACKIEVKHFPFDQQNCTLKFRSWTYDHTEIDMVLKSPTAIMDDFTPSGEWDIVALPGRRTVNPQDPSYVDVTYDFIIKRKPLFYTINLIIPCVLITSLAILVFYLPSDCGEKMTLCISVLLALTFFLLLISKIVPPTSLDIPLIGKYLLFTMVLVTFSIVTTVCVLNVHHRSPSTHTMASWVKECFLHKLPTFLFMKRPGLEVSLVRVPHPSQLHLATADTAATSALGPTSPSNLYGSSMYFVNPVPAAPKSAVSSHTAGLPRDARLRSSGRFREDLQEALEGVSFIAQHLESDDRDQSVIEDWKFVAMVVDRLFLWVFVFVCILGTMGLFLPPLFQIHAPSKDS

[8] = Antagonist activity at rat alpha6/ alpha3beta2beta3 nAChR expressed in xenopus oocytes assessed as inhibition of Ach- induced response at -70 mV holding potential preincubated for 5 mins followed by Ach stimulation by voltage-clamp based electrophysiological method; assay type: cell-based; details: Oocyte
[9] = target: Neuronal acetylcholine receptor; alpha2/beta2 (Rattus norvegicus) (UniProt P12389+P12390); test: Antagonist activity at rat alpha2beta2 nAChR expressed in xenopus oocytes assessed as inhibition of Ach- induced response at 10 uM at -70 mV holding potential preincubated for 5 mins followed by Ach stimulation by voltage-clamp based electrophysiological method; assay type: cell-based; details: Oocyte
[10] = target: Neuronal acetylcholine receptor; alpha3/beta2 (Rattus norvegicus, UniProt P04757+P12390); test: Antagonist activity at rat alpha3beta2 nAChR expressed in xenopus oocytes assessed as inhibition of Ach- induced response at -70 mV holding potential preincubated for 5 mins followed by Ach stimulation by voltage-clamp based electrophysiological method; assay type: cell-based, Oocyte
Neuronal acetylcholine receptor; alpha3/beta2, sequence (P04757 whole entry): as the sequence (P04757 whole entry) above
Neuronal acetylcholine receptor; alpha3/beta2, sequence (P12390 whole entry): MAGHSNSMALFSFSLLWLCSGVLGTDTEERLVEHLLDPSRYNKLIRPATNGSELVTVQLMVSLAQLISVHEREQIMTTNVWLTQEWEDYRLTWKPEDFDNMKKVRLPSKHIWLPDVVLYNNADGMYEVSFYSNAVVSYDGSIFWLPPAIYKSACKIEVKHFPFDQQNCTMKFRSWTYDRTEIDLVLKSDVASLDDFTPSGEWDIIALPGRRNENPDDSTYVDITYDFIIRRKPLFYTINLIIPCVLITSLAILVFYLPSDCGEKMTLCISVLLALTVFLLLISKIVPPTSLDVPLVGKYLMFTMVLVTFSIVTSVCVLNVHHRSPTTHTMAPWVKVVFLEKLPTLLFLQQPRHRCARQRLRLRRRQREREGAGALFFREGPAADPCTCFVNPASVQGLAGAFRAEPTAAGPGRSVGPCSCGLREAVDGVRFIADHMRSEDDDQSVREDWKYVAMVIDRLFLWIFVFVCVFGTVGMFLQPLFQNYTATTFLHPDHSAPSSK

[11] = target: Neuronal acetylcholine receptor; alpha2/beta4 (Rattus norvegicus, UniProt P12389+P12392); test: Antagonist activity at rat alpha2beta4 nAChR expressed in xenopus oocytes assessed as inhibition of Ach- induced response at -70 mV holding potential preincubated for 5 mins followed by Ach stimulation by voltage-clamp based electrophysiological method; assay type: cell-based, Oocyte
Neuronal acetylcholine receptor; alpha2/beta4, sequence (P12389 whole entry): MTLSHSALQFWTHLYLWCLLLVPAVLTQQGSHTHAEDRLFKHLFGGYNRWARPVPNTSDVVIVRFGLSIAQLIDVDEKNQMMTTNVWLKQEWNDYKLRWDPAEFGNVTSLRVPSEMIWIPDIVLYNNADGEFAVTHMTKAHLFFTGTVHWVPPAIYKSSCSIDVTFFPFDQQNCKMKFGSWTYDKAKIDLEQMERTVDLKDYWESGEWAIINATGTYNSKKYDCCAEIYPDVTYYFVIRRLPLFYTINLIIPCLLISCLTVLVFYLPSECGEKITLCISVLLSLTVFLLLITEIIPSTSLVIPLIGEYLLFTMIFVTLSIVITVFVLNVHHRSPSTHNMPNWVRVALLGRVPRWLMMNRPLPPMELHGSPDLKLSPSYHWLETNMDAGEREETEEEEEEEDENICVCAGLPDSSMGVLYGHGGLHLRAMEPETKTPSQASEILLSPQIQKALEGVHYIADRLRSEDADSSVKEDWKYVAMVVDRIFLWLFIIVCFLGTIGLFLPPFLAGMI
Neuronal acetylcholine receptor; alpha2/beta4, sequence (P12392 whole entry): as the sequence (P12392 whole entry) above

[12] = target: Nicotinic acetylcholine receptor alpha9/alpha10 (Rattus norvegicus) (UniProt P43144+Q9JLB5); test: Antagonist activity at rat alpha9alpha10 nAChR expressed in xenopus oocytes assessed as inhibition of Ach- induced response at 10 uM at -70 mV holding potential preincubated for 5 mins followed by Ach stimulation by voltage-clamp based electrophysiological method; assay type: cell-based; details: Oocyte
[13] = target: Neuronal acetylcholine receptor; alpha2/beta2 (Rattus norvegicus, UniProt P12389+P12390); test: Antagonist activity at rat alpha2beta2 nAChR expressed in xenopus oocytes assessed as inhibition of Ach- induced response at -70 mV holding potential preincubated for 5 mins followed by Ach stimulation by voltage-clamp based electrophysiological method; assay type: cell-based, Oocyte
[14] = target: Neuronal acetylcholine receptor; alpha2/beta4 (Rattus norvegicus) (UniProt P12389+P12392); test: Antagonist activity at rat alpha2beta4 nAChR expressed in xenopus oocytes assessed as inhibition of Ach- induced response at 10 uM at -70 mV holding potential preincubated for 5 mins followed by Ach stimulation by voltage-clamp based electrophysiological method; assay type: cell-based; details: Oocyte
[15] = target: Neuronal acetylcholine receptor; alpha4/beta4 (Rattus norvegicus) (UniProt P09483+P12392); test: Antagonist activity at rat alpha4beta4 nAChR expressed in xenopus oocytes assessed as inhibition of Ach- induced response at 10 uM at -70 mV holding potential preincubated for 5 mins followed by Ach stimulation by voltage-clamp based electrophysiological method; assay type: cell-based; details: Oocyte
[16] = target: Neuronal acetylcholine receptor; alpha4/beta4 (Rattus norvegicus, UniProt P09483+P12392); test: Antagonist activity at rat alpha4beta4 nAChR expressed in xenopus oocytes assessed as inhibition of Ach- induced response at -70 mV holding potential preincubated for 5 mins followed by Ach stimulation by voltage-clamp based electrophysiological method; assay type: cell-based, Oocyte
[17] = target: Neuronal acetylcholine receptor subunit alpha-7 (Rattus norvegicus, UniProt Q05941); test: Antagonist activity at rat alpha7 nAChR expressed in xenopus oocytes assessed as inhibition of Ach- induced response at -70 mV holding potential preincubated for 5 mins followed by Ach stimulation by voltage-clamp based electrophysiological method; assay type: cell-based, Oocyte
Neuronal acetylcholine receptor subunit alpha-7, sequence (Q05941 whole entry): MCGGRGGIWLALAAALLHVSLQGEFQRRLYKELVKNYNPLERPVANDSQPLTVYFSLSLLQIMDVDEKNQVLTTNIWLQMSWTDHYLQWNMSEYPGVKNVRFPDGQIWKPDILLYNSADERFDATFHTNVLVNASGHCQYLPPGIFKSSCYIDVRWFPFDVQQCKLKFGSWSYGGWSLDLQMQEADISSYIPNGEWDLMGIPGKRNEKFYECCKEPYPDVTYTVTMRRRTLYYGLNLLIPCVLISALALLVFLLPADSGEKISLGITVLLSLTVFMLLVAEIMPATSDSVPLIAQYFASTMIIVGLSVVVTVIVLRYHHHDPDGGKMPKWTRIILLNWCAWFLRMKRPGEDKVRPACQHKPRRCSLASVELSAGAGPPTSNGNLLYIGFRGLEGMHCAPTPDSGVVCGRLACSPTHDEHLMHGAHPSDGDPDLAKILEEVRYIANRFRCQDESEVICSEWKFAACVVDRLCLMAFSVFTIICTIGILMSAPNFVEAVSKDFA

[18] = target: T1, Nicotinic acetylcholine receptor alpha6/alpha3/beta4; test: Antagonist activity at rat alpha6/alpha3beta4 nAChR expressed in xenopus oocytes assessed as inhibition of Ach- induced response at 10^-5 M at -70 mV holding potential preincubated for 5 mins followed by Ach stimulation by voltage-clamp based electrophysiological method relative to control; assay type: cell-based; set-up: scale not given: the % may be the effect or the level left; details: Oocyte, filed as antagonist, dose 1.0 10^-5M

Row | Compound | inhibition [1] | IC50 [2] | IC50 [3] | IC50 [4] | Activity [5] | inhibition [6] | IC50 [7] | IC50 [8] | inhibition [9] | IC50 [10] | IC50 [11] | inhibition [12] | IC50 [13] | inhibition [14] | inhibition [15] | IC50 [16] | IC50 [17] | Activity [18]
1 | C[C@@H]1NC(=O)[C@@H]2CSSC[C@H](NC(=O)[C@@H](N)CCC(N)=O)C(=O)N[C@@H](CSSC[C@@H](C(=O)N[C@@H](CCCNC(=N)N)C(=O)O)NC(=O)[C@H](Cc3cnc[nH]3)NC(=O)[C@H](CCC(=O)O)NC(=O)[C@H](Cc3cnc[nH]3)NC1=O)C(=O)N[C@@H](CO)C(=O)N[C@@H](CC(N)=O)C(=O)N1CCC[C@H]1C(=O)N1CCC[C@H]1C(=O)N2 (H-QCCSNPPCAHEHCR-OH; disulfide 2-8, 3-13) | inactive | > 10 µM | > 10 µM | > 10 µM | < 50% | inactive | > 10 µM | 5.3 µM | inactive | > 10 µM | > 10 µM | inactive | > 10 µM | inactive | inactive | > 10 µM | 1.76 µM | 
2 | C[C@@H]1NC(=O)[C@@H]2CSSC[C@H](N)C(=O)N[C@@H](CSSC[C@@H](C(N)=O)NC(=O)[C@H](Cc3cnc[nH]3)NC(=O)[C@H](CCC(=O)O)NC(=O)[C@H](Cc3cnc[nH]3)NC1=O)C(=O)N[C@@H](CO)C(=O)N[C@@H](CC(N)=O)C(=O)N1CCC[C@H]1C(=O)N1CCC[C@H]1C(=O)N2 (H-CCSNPPCAHEHC-NH2; disulfide 1-7, 2-12) | inactive | > 10 µM | > 10 µM | > 10 µM |  | inactive | > 10 µM | 3.3 µM | inactive | 4.63 µM | > 10 µM | inactive | > 10 µM | inactive | inactive | > 10 µM | 1.81 µM | < 50%
